One data set is described as follows: Solubility experiment. Type of data set: physicochemical. To be noted: listed as free base sample. How it is done:
The solubility of crystal forms A, D, E-1, E-3, F and free base sample in buffer of 0.1M HCl, pH 4.5, pH 6.8 and water was tested at room temperature. In the test, the standard curves of free base sample and five crystal forms were plotted. Subsequently, 6 mg of API and five crystal form samples were weighed, respectively, and 2 ml of the solvent was added, the mixture was shaken at room temperature for 4 h, then ultrasonicated for 30 min, centrifuged, and the supernatant was taken out, filtered through a 0.45 μm filter and injected, and the solubility was measured, the results are shown in Table 28 (concentration is in mg/ml).

For data set [1], the target named is T1, hERG potassium ion channel (Homo sapiens, UniProt Q12809).
T1 construct: host or cells: CHO (CHO hERG, passage P15)
The experiment in a line: Effect on the hERG potassium ion channel (CHO hERG cells, manual patch clamp). It is filed as cell-based. How it is done: 2.1.1 Cells used in this experiment are CHO cell lines (supplied by Sophion Bioscience, Denmark) which are hERG cDNA transfectant and stably express hERG channels, cell progeny is P15. Cells are cultured in medium containing the following ingredients Invitrogen): Ham's F12 medium, 10% (v/v) inactivated fetal bovine serum, […] hygromycin B, […] Geneticin.
2.1.2 CHO hERG cells were grown in Petri dishes containing the above medium and cultured in an incubator containing 5% CO2 at 37° C. CHO hERG cells were transferred onto round glass plates in Petri dishes, and grown on the same culture medium and culture conditions as above 24 h to 48 h prior to the electrophysiological experiments, and the density of CHO hERG cells on each round glass plate needs to meet the requirements that the vast majority of cells are independent and individual.
The following solutions (supplied by Sophion) were used for electrophysiological recording. The reagents used in this test were provided by Sigma.
In this experiment, whole-cell current recording was performed using a manual patch clamp system (HEKA EPC-10 signal amplification and digital conversion system, purchased from HEKA Electronic, Germany). The round glass slide of which surface CHO hERG cells were grown on was placed in an electrophysiological recording slot under an inverted microscope. Perfused steadily with extracellular fluid in recording slot (approximately 1 ml per minute). A conventional whole-cell patch clamp current recording technique was used in the experiment. Unless otherwise specified, experiments were performed at normal room temperature (about 25° C.). Cell clamping was at −80 mV. […] The hERG potassium current recorded in the above steps could be superfused for test drug after the steady perfusion state of the extracellular fluid in the recording slot had been stabilized until the inhibition of the hERG current by the drug reached a steady state. […]
The test data were analyzed by the data analysis software provided by HEKA Patchmaster (V2x73.2), Microsoft Excel and Graphpad Prism 5.0.

These results are taken from US10947202B2, “Sodium ion channel inhibitors and pharmaceutically acceptable salts and polymorphs thereof and uses thereof” (SHANGHAI HAIYAN PHARMACEUTICAL TECHNOLOGY CO., LTD., priority 2017, dated 2021).

Where two headings read alike, the source gives them in different places. A value given as a limit tells only on which side of the number the result lay.

T1 sequence (Q12809 whole entry): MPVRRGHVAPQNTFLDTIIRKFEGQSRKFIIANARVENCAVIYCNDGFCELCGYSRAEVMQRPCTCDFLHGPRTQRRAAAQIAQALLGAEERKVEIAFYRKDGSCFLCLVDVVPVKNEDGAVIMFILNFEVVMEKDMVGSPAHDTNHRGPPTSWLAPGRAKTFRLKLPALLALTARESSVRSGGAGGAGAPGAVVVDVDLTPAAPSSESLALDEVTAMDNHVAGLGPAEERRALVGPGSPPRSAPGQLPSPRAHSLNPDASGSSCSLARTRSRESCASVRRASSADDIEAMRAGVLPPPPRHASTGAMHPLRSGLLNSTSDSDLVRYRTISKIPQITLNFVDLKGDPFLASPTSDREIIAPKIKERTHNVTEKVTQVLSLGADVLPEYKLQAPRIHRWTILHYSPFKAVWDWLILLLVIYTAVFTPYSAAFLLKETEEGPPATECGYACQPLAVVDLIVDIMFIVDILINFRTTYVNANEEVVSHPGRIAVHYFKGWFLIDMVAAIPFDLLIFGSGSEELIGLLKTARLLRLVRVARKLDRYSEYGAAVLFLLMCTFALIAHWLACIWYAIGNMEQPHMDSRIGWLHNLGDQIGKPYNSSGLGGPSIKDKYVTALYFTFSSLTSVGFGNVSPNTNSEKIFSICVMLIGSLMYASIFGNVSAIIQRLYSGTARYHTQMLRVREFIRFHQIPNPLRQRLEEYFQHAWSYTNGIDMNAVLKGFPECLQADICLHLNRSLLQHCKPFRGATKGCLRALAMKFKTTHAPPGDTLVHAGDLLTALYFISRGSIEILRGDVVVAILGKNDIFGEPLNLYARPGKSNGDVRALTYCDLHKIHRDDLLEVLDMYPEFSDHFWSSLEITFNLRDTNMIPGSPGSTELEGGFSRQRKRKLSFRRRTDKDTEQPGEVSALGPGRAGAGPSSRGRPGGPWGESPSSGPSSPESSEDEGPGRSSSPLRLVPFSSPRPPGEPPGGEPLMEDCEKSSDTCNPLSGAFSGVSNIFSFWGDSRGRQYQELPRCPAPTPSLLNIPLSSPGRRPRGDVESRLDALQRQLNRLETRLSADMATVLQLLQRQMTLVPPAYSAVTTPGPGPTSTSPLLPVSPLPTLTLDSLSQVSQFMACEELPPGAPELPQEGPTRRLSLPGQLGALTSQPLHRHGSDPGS

In the case of `Cc1cc(N2CCN(Cc3cc(F)c(C(=O)NS(=O)(=O)C4CC4)cc3Cl)CC2)ccc1Cl` [the free base of formula X compound, 5-chloro-4-((4-(4-chloro-3-methylphenyl)piperazin-1-yl)methyl)-N-(cyclopropylsulfonyl)-2-fluorobenzamide], the “Solubility (mg/mL) 0.1M HCl” value in the data set “Solubility experiment” (0.1M HCl, room temperature) came to 0.065 mg/mL. Besides, in “Solubility experiment” (buffer pH 4.5, room temperature), the “Solubility (mg/mL) pH4.5” value is 0.001 mg/mL. Besides, the “Solubility (mg/mL) pH6.8” value in the data set “Solubility experiment” (buffer pH 6.8, room temperature) came to 0.021 mg/mL. Further, the “Solubility (mg/mL) H2O” value in the data set “Solubility experiment” (water, room temperature) was 0.027 mg/mL. The “inhibitory activity on the hERG potassium ion channel” value in data set [1] was “little inhibitory activity”. For the same molecule, the IC50 in data set [1] (read-out: hERG inhibitory concentration IC50) and in data set [1] (read-out: hERG potassium ion channel (IC50/nM)) was more than 10000 nM each time.
